Measurements reported in ChEMBL document CHEMBL5104090, “Recent advances in the medicinal chemistry of carbonic anhydrase inhibitors” (Eur J Med Chem, 2021).
Blank lines part the entries; values can stand above or below the compound they belong to.

Tests used:
Carbonic anhydrase 7 = Carbonic anhydrase 7 (Homo sapiens, UniProt P43166)
Carbonic anhydrase 9 [1] = biological target: T1, Carbonic anhydrase 9 (Homo sapiens, UniProt Q16790)
Carbonic anhydrase 12 [2] = biological target: T2, Carbonic anhydrase 12 (Homo sapiens, UniProt O43570)
Carbonic anhydrase 1 [3] = biological target: T3, Carbonic anhydrase 1 (Homo sapiens, UniProt P00915)
Carbonic anhydrase 2 [4] = biological target: T4, Carbonic anhydrase 2 (Homo sapiens, UniProt P00918)
Carbonic anhydrase 4 [5] = biological target: T5, Carbonic anhydrase 4 (Homo sapiens, UniProt P22748)
Carbonic anhydrase 9 [6] = biological target: T1, Carbonic anhydrase 9; remark: listed apart in the source
Carbonic anhydrase 1 [7] = biological target: T3, Carbonic anhydrase 1; remark: listed apart in the source
Carbonic anhydrase 2 [8] = biological target: T4, Carbonic anhydrase 2; remark: listed apart in the source
Carbonic anhydrase 1 [9] = biological target: T3, Carbonic anhydrase 1; remark: listed apart in the source
Carbonic anhydrase 2 [10] = biological target: T4, Carbonic anhydrase 2; remark: listed apart in the source
Carbonic anhydrase 9 [11] = biological target: T1, Carbonic anhydrase 9; remark: listed apart in the source
Carbonic anhydrase 12 [12] = biological target: T2, Carbonic anhydrase 12; remark: listed apart in the source
Carbonic anhydrase 4 [13] = biological target: T5, Carbonic anhydrase 4; remark: listed apart in the source
Carbonic anhydrase 9 [14] = biological target: T1, Carbonic anhydrase 9; remark: listed apart in the source

T3 sequence (P00915 whole entry): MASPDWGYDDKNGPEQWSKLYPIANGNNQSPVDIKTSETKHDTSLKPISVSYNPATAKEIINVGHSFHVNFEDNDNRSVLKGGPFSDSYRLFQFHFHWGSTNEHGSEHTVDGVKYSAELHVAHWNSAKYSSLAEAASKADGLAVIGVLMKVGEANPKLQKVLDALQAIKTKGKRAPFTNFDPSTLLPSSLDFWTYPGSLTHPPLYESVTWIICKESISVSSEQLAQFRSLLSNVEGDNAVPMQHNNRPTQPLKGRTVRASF
Sequence of Carbonic anhydrase 7 (P43166 whole entry): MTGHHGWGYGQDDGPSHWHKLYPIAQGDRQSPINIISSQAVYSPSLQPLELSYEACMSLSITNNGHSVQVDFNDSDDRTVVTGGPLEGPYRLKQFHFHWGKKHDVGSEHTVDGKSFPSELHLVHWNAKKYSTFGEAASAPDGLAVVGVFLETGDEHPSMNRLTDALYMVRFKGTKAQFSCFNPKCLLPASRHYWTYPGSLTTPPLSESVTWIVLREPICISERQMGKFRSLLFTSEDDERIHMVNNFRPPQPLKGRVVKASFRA
T5 sequence (P22748 whole entry): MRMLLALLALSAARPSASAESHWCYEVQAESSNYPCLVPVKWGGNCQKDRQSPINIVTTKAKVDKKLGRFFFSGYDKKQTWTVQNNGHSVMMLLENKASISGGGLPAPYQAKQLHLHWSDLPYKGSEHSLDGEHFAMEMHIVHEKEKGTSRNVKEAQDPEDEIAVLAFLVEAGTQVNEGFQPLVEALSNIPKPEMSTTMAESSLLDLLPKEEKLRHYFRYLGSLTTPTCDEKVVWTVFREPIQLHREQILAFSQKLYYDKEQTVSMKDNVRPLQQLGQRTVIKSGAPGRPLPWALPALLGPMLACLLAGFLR
T2 sequence (O43570 whole entry): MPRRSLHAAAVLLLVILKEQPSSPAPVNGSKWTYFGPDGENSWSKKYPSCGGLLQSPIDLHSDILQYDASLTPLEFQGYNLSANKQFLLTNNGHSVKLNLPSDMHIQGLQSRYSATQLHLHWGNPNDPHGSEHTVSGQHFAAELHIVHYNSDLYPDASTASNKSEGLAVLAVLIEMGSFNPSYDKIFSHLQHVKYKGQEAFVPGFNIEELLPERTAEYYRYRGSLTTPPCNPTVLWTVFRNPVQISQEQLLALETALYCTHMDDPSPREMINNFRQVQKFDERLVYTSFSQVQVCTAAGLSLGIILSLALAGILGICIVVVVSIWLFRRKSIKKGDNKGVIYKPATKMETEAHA

Compound: Cc1cccc(C)c1[SeH]
Ki (Carbonic anhydrase 7): 0.76 µM

Ki (Carbonic anhydrase 9 [1]): 0.0085 µM | Ki (Carbonic anhydrase 12 [2]): 0.0086 µM
Compound: NS(=O)(=O)c1ccc(C(=O)N/N=C/c2cccc(O)c2)cc1

Ki (Carbonic anhydrase 1 [3]): > 10 µM | Ki (Carbonic anhydrase 2 [4]): > 10 µM | Ki (Carbonic anhydrase 4 [5]): > 10 µM | Ki (Carbonic anhydrase 9 [6]): > 10 µM
Compound: O=C(O)c1ccc(N2C(=O)c3ccc(C(=O)O)cc3C2=O)cc1

Ki (Carbonic anhydrase 1 [7]): 0.0242 µM | Ki (Carbonic anhydrase 2 [8]): 0.0373 µM
Compound: Cc1ccc(C2CC(c3cccs3)=NN2c2ccc(S(N)(=O)=O)cc2)cc1 (centres undefined)

Ki (Carbonic anhydrase 1 [7]): 0.0242 µM | Ki (Carbonic anhydrase 2 [8]): 0.0373 µM
Compound: NS(=O)(=O)c1ccc(N2N=C(c3cccs3)CC2c2ccc(Cl)cc2)cc1 (centres undefined)

Compound: COc1cccc([SeH])c1
Ki (Carbonic anhydrase 9 [1]): 0.28 µM | Ki (Carbonic anhydrase 7): 0.76 µM

Ki (Carbonic anhydrase 1 [3]): > 10 µM | Ki (Carbonic anhydrase 2 [4]): > 10 µM | Ki (Carbonic anhydrase 4 [5]): > 10 µM | Ki (Carbonic anhydrase 9 [6]): > 10 µM
Compound: COC(=O)c1ccc2c(c1)C(=O)N(CCc1ccccc1)C2=O

Ki (Carbonic anhydrase 1 [7]): 0.0242 µM | Ki (Carbonic anhydrase 2 [8]): 0.0373 µM
Compound: NS(=O)(=O)c1ccc(N2N=C(c3cccs3)CC2c2ccc(F)cc2)cc1 (centres undefined)

IC50 (Carbonic anhydrase 1 [9]): > 0.36 µM | IC50 (Carbonic anhydrase 2 [10]): > 0.36 µM | IC50 (Carbonic anhydrase 9 [11]): > 0.36 µM | IC50 (Carbonic anhydrase 12 [12]): > 0.36 µM
Compound: Cn1c(-c2ccc(B(O)O)cc2)nc2ccccc21

IC50 (Carbonic anhydrase 1 [9]): > 0.36 µM | IC50 (Carbonic anhydrase 2 [10]): > 0.36 µM | IC50 (Carbonic anhydrase 9 [11]): > 0.36 µM | IC50 (Carbonic anhydrase 12 [12]): > 0.36 µM
Compound: Cn1c(-c2ccc(Cl)cc2)nc2cc(C(=O)NO)ccc21

IC50 (Carbonic anhydrase 1 [9]): > 0.36 µM | IC50 (Carbonic anhydrase 2 [10]): > 0.36 µM | IC50 (Carbonic anhydrase 9 [11]): > 0.36 µM | IC50 (Carbonic anhydrase 12 [12]): > 0.36 µM
Compound: Cn1c(-c2ccccc2)nc2cc(C(N)=O)ccc21

Ki (Carbonic anhydrase 9 [1]): 0.0193 µM | Ki (Carbonic anhydrase 12 [2]): 0.0172 µM
Compound: Cc1ccc(CSc2nc3ccccc3c(=O)n2CCc2ccc(S(N)(=O)=O)cc2)cc1

Ki (Carbonic anhydrase 9 [1]): 0.00021 µM | Ki (Carbonic anhydrase 4 [13]): 0.0065 µM
Compound: COc1ccc(C(=O)/C=C/Nc2ccc(S(N)(=O)=O)cc2)cc1

Compound: Cc1ccccc1[SeH]
Ki (Carbonic anhydrase 7): 0.76 µM

Ki (Carbonic anhydrase 9 [1]): 0.0158 µM | Ki (Carbonic anhydrase 12 [2]): 0.0086 µM
Compound: CCN(CC)c1ccc(/C=N/NC(=O)c2ccc(S(N)(=O)=O)cc2)c(O)c1

Ki (Carbonic anhydrase 9 [1]): 0.0578 µM | Ki (Carbonic anhydrase 12 [2]): 0.0578 µM
Compound: CSc1nc2ccccc2c(=O)n1CCc1ccc(S(N)(=O)=O)cc1

Compound: Cc1ccc([SeH])cc1
Ki (Carbonic anhydrase 9 [1]): 0.18 µM | Ki (Carbonic anhydrase 7): 0.76 µM

Ki (Carbonic anhydrase 9 [1]): 0.00021 µM | Ki (Carbonic anhydrase 4 [13]): 0.0065 µM
Compound: NS(=O)(=O)c1ccc(N/C=C/C(=O)c2cccs2)cc1

Compound: [SeH]c1ccccc1
Ki (Carbonic anhydrase 9 [1]): 0.18 µM | Ki (Carbonic anhydrase 7): 0.76 µM

Ki (Carbonic anhydrase 1 [7]): 0.0242 µM | Ki (Carbonic anhydrase 2 [8]): 0.0373 µM
Compound: COc1ccc(C2CC(c3cccs3)=NN2c2ccc(S(N)(=O)=O)cc2)c(OC)c1 (centres undefined)

IC50 (Carbonic anhydrase 1 [9]): > 0.36 µM | IC50 (Carbonic anhydrase 2 [10]): > 0.36 µM | IC50 (Carbonic anhydrase 9 [11]): > 0.36 µM | IC50 (Carbonic anhydrase 12 [12]): > 0.36 µM
Compound: Cn1c(-c2ccc(Cl)cc2)nc2cc(C(=O)O)ccc21

IC50 (Carbonic anhydrase 1 [9]): > 0.36 µM | IC50 (Carbonic anhydrase 2 [10]): > 0.36 µM | IC50 (Carbonic anhydrase 9 [11]): > 0.36 µM | IC50 (Carbonic anhydrase 12 [12]): > 0.36 µM
Compound: Cn1c(-c2ccccc2)nc2cc(B(O)O)ccc21

Ki (Carbonic anhydrase 4 [13]): 0.0065 µM
Compound: NS(=O)(=O)c1cccc(N/C=C/C(=O)c2ccc(Cl)cc2)c1

Ki (Carbonic anhydrase 1 [3]): 0.0541 µM | Ki (Carbonic anhydrase 2 [4]): 0.0259 µM | Ki (Carbonic anhydrase 4 [5]): 0.317 µM | Ki (Carbonic anhydrase 9 [6]): 0.0541 µM
Compound: COC(=O)c1ccc2c(c1)C(=O)N(Cc1ccc(S(N)(=O)=O)cc1)C2=O

Kis (Carbonic anhydrase 9 [14]): 3 nM
Compound: NS(=O)(=O)c1ccc(C(=O)NN2C(=O)c3c(Br)c(Br)c(Br)c(Br)c3C2=O)cc1

Ki (Carbonic anhydrase 9 [1]): 0.0193 µM | Ki (Carbonic anhydrase 12 [2]): 0.0172 µM
Compound: N#Cc1ccc(CSc2nc3ccccc3c(=O)n2CCc2ccc(S(N)(=O)=O)cc2)cc1

Ki (Carbonic anhydrase 1 [3]): > 10 µM | Ki (Carbonic anhydrase 2 [4]): > 10 µM | Ki (Carbonic anhydrase 4 [5]): > 10 µM | Ki (Carbonic anhydrase 9 [6]): > 10 µM
Compound: CCOC(=O)c1ccc(N2C(=O)c3ccc(C(=O)O)cc3C2=O)cc1

IC50 (Carbonic anhydrase 1 [9]): > 0.36 µM | IC50 (Carbonic anhydrase 2 [10]): > 0.36 µM | IC50 (Carbonic anhydrase 9 [11]): > 0.36 µM | IC50 (Carbonic anhydrase 12 [12]): > 0.36 µM
Compound: Cn1c(-c2ccc(Cl)cc2)nc2cc(B(O)O)ccc21

Ki (Carbonic anhydrase 1 [3]): 0.0541 µM | Ki (Carbonic anhydrase 2 [4]): 0.0259 µM | Ki (Carbonic anhydrase 4 [5]): 0.317 µM | Ki (Carbonic anhydrase 9 [6]): 0.0541 µM
Compound: COC(=O)c1ccc2c(c1)C(=O)N(CCc1ccc(S(N)(=O)=O)cc1)C2=O

Ki (Carbonic anhydrase 1 [3]): > 10 µM | Ki (Carbonic anhydrase 2 [4]): > 10 µM | Ki (Carbonic anhydrase 4 [5]): > 10 µM | Ki (Carbonic anhydrase 9 [6]): > 10 µM
Compound: COC(=O)c1ccc2c(c1)C(=O)N(Cc1ccccc1)C2=O

Ki (Carbonic anhydrase 12 [2]): 0.0172 µM
Compound: NS(=O)(=O)c1ccc(CCn2c(SCc3ccc([N+](=O)[O-])cc3)nc3ccccc3c2=O)cc1

IC50 (Carbonic anhydrase 9 [11]): 0.643 µM
Compound: Cc1ncc([N+](=O)[O-])n1CCS(N)(=O)=O

IC50 (Carbonic anhydrase 1 [9]): > 0.36 µM | IC50 (Carbonic anhydrase 2 [10]): > 0.36 µM | IC50 (Carbonic anhydrase 9 [11]): > 0.36 µM | IC50 (Carbonic anhydrase 12 [12]): > 0.36 µM
Compound: NS(=O)(=O)c1ccc2[nH]c(-c3ccccc3)nc2c1

Ki (Carbonic anhydrase 1 [3]): > 10 µM | Ki (Carbonic anhydrase 2 [4]): > 10 µM | Ki (Carbonic anhydrase 4 [5]): > 10 µM | Ki (Carbonic anhydrase 9 [6]): > 10 µM
Compound: CCOC(=O)c1ccc(N2C(=O)c3ccc(C(=O)OC)cc3C2=O)cc1

Compound: COc1ccccc1[SeH]
Ki (Carbonic anhydrase 7): 0.76 µM

Compound: COc1ccc([SeH])cc1
Ki (Carbonic anhydrase 9 [1]): 0.18 µM | Ki (Carbonic anhydrase 7): 0.76 µM

Ki (Carbonic anhydrase 4 [13]): 0.0065 µM
Compound: NS(=O)(=O)c1cccc(N/C=C/C(=O)c2ccccc2)c1
